The text below walks through data of patent US7820804B2, “Fluoroglycoside derivatives of pyrazoles, medicaments containing these compounds, and the use thereof” (Sanofi-Aventia Deutschland GmbH, priority 2004, dated 2010).

The target of this assay is T1, human sodium-dependent glucose transporter 1 (SGLT1, SLC5A1) (Homo sapiens, UniProt P13866).
T1 construct: Bases 11 to 2005 correspond to the complete coding region of human SGLT1; expressed in transfected cells
T1 sequence (P13866 1-664): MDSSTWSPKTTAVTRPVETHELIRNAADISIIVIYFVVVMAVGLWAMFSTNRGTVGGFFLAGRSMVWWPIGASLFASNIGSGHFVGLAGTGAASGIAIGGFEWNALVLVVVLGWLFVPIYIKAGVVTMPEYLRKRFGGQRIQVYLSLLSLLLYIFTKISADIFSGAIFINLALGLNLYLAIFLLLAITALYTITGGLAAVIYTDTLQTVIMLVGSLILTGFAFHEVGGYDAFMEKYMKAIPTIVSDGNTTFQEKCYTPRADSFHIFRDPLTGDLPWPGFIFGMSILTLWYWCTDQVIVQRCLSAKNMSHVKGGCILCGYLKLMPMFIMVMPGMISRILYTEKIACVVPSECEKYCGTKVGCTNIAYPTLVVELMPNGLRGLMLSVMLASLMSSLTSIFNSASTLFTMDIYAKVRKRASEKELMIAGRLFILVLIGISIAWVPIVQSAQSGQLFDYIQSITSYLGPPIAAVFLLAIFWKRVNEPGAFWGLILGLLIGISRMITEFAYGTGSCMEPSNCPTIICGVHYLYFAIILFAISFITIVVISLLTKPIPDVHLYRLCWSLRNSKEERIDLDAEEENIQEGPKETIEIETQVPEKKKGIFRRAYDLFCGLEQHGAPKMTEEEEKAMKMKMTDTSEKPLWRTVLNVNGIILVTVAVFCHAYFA
The assay is described as follows: Inhibition of methyl α-D-glucopyranoside (α-MDG) uptake in CHO-TRex-hSGLT1 cells. Type of assay: cell-based. As to conditions: in vitro uptake of methyl α-D-glucopyranoside, 50 μM α-MDG, 30 min at room temperature. From the text: A further method for testing the activity of the compounds is the inhibition of the transport activity of the human sodium-dependent glucose transporter 1 (SGLT1, SLC5A1) in vitro:
1. Cloning of an Expression Vector for Human SGLT1
The cDNA for human SGLT1 was introduced into the pcDNA4/TO vector (Invitrogen) by standard methods of molecular biology as described in Sambrook et al. (Sambrook et al., Molecular Cloning, A Laboratory Manual, 2nd Edition). […] Bases 11 to 2005 correspond to the complete coding region of human SGLT1.
2. Preparation of a Recombinant Cell Line with Inducible Expression of Human SGLT1
The expression vector for human SGLT1 was introduced into CHO-TRex cells (Invitrogen) by means of FuGene6 lipofection (Roche). To select single cell clones, 600 μg/mI Zeocin (Invitrogen) was added to the cell culture medium (Nutrient Mixture F-12 (Ham), (Invitrogen) supplemented with 10% fetal calf serum (BD Biosciences), 10 μg/ml blasticidin S (CN Biosciences), 100 units/ml penicillin, 100 units/ml streptomycin). The functionality of the single cell clones resulting from the selection was tested via their uptake activity for radiolabeled methyl α-D-glucopyranoside. The cell clone with the greatest uptake activity for methyl α-D-glucopyranoside, referred to as CHO-TRex-hSGLT1 hereinafter, was selected for further experiment, and cultivation was continued in the presence of 600 μg/ml of zeocin.
3. Measurement of the Inhibitory Effect of Test Substances on the Uptake of Methyl […]-D-glucopyranoside ([…]-MDG)
CHO-TRex-hSGLT1 cells were seeded in a concentration of 50 000 cells per well in Cytostar-T scintillating 96-well plates (Amersham Biosciences) in cell culture medium and cultivated for 24 h. Expression of the recombinant human SGLT1 was induced by adding 1 pg/mI tetracyclin for a further 24 h. For α-MDG uptake experiments, the cells were washed with PBS and then starved (PBS supplemented with 10% fetal calf serum) at 37° C. for one hour. After a further washing step with transport assay buffer (140 mM sodium chloride, 2 mM potassium chloride, 1 mM magnesium chloride, 1 mM calcium chloride, 10 mM HEPES/Tris, pH 7.5), the cells were incubated either in the absence or presence of test substances varying in concentration at room temperature for 15 min. The test substances were diluted appropriately in transport assay buffer (40 μl/well) starting from a 10 mM stock solution in dimethyl sulfoxide.
The assay was then started by adding 10 μl of a mixture of radiolabeled methyl α-D-[U-^14C]glucopyranoside (Amersham) and unlabeled methyl α-D-glucopyranoside (Acros). The final concentration of methyl α-D-glucopyranoside in the assay was 50 μM. After an incubation time of 30 min at room temperature, the reaction was stopped by adding 50 µl/well of 10 mM methyl α-D-glucopyranoside in transport assay buffer (4° C.), and the radioactivity uptake by the cells was determined in a MicroBeta Scintillation Microplate Reader (Wallac). The half-maximum inhibitory effect of the test substances (IC50) was determined in the following way: • 1. Establishment of the value for 0% inhibition. This is the measurement in the absence of substance, measured in sodium-containing transport assay buffer. • 2. Establishment of the value for 100% inhibition. This is the measurement in the absence of substance, measured in sodium-free transport assay buffer (140 mM choline chloride, 2 mM potassium chloride, 1 mM magnesium chloride, 1 mM calcium chloride, 10mM HEPES/Tris, pH7.5). • 3. Calculation of the percentage inhibitions for the measurements carried out in the presence of various concentrations of test substance. It was then possible to ascertain therefrom the concentration of test substance which reduced the uptake of methyl α-D-glucopyranoside by 50% (IC50).
IC50 values of test substances (μM) [in vitro testing of the uptake of methyl α-D-glucopyranoside]
Compound `CC(C)c1[nH]nc(OC2OC(CO)C(F)C(O)C2O)c1Cc1ccc(CCCC(=O)NC(CO)(CO)CO)cc1` (stereo not drawn) [Example 21] registered an IC50 of 47 nM.

`CC(C)c1[nH]nc(O[C@@H]2O[C@H](CO)[C@@H](F)[C@H](O)[C@H]2O)c1Cc1ccc(C(=O)NCC(N)=O)cc1` [Example 33]: it took 70 nM to reach half-maximal inhibition (IC50).

The compound `CC(C)c1[nH]nc(OC2OC(CO)C(F)C(O)C2O)c1Cc1ccc(CCCC(=O)N2CCCC2)cc1` (stereo not drawn) [Example 15] returned a half-inhibitory concentration (IC50) of 170 nM.

On to `CC(C)c1[nH]nc(OC2OC(CO)C(F)C(O)C2O)c1Cc1ccc(CCCC(=O)N2CCN(C)CC2)cc1` (stereo not drawn) [Example 12], for which the concentration for half-maximal inhibition (IC50) is 139 nM.

Turning to `CC(C)c1[nH]nc(OC2OC(CO)C(F)C(O)C2O)c1Cc1ccc(CCCNC(=O)N2CCN(C)CC2)cc1` (stereo not drawn) [Example 36], the IC50 came out at 43 nM.

For the compound `CC(C)c1[nH]nc(OC2OC(CO)C(F)C(O)C2O)c1Cc1ccc(CCCC(=O)N[C@@H]2O[C@H](CO)[C@@H](O)[C@H](O)[C@H]2O)cc1` (stereo partly drawn) [Example 24], half-maximal inhibition (IC50) was put at 208 nM.

Regarding `CC(C)c1[nH]nc(OC2OC(CO)C(F)C(O)C2O)c1Cc1ccc(CCCC(=O)N[C@@H](CO)C(N)=O)cc1` (stereo partly drawn) [Example 9], the IC50 turned out to be 81 nM.

Compound `CC(C)c1[nH]nc(OC2OC(CO)C(F)C(O)C2O)c1Cc1ccc(/C=C/CC(=O)NCCC(N)=O)cc1` (stereo not drawn) [Example 3] had an IC50 of 43 nM.

As to `CCCNC(=O)NCCCc1ccc(Cc2c(OC3OC(CO)C(F)C(O)C3O)n[nH]c2C)cc1` (stereo not drawn) [Example 31], it took 252 nM to reach half-maximal inhibition (IC50).

Regarding `CC(C)c1[nH]nc(OC2OC(CO)C(F)C(O)C2O)c1Cc1ccc(CCCC(=O)NCCCN)cc1` (stereo not drawn) [Example 22], the IC50 was 144 nM.

With `CC(C)c1[nH]nc(OC2OC(CO)C(F)C(O)C2O)c1Cc1ccc(CCC(=O)NC(C)(C)CO)cc1` (stereo not drawn) [Example 18], half-maximal inhibition (IC50) was put at 80 nM.

Take `Cc1[nH]nc(OC2OC(CO)C(F)C(O)C2O)c1Cc1ccc(CCCC(=O)NCCC(N)=O)cc1` (stereo not drawn) [Example 6]: the half-maximal inhibitory concentration (IC50) came out at 133 nM.
